Results reported in patent EP0857779A1, “PROCESS FOR THE BIODEGRADATION OF AROMATIC COMPOUNDS AND SYNTHESIS OF PIGMENTS AND COLORANTS, ALCALOIDS AND POLYMERS, WITH THE USE OF THE R[…] ESCHERICHIA COLI P260” (priority 1996, dated 1998).

Tests used:
[1] = molecular target: T1, 4-HPA hydroxylase of K. pneumoniae (Klebsiella oxytoca, UniProt Q48440); assay: Hidroxylase activity expressed by E. coli P260 on different aromatic compounds; format: biochemical; design: concentration or dose not given beside the values; conditions: compound as organic substrate of the enzyme expressed by E. coli P260
T1 construct: expressed in transfected cells; host or cells: E. coli CC118 (K-12) transformed with pG260 = E. coli P260 (CECT 4627)
Excerpt: (§1) By means of hydroxylation, this enzyme transforms 3-HPA and 4-HPA into 3,4-DHPA which, after the subdequent action of a dioxygenase, loses its aromaticity. For the isolation of these genes, the chromosomic DNA of K. pneumoniae was isolated and digested with the restriction enzyme Bam Hl. As a cloning vector the plasmid pUC18Not was chosen (Herrero et al., 1990; J. Bacteriol. 72:6557-67), digested with BamHl and dephosphorilated. Bonding mixtures were used in the transformation of the mutant strain W-21 of E. coli (Lacrec A), a mutant deficient in the 4-HPA hydroxylase enzyme. The transformants were select on plates that contained ampicillin (100 µg/ml), IPTG and X-Gal and subsequently on selected media with Ampicillin and 4-HPA as the sole source of carbon and energy. A recombinant plasmid complemented the 4-HPA mutation of E. coli W-21 and treating this transformant with acridin orange caused reversion to the mutant phenotype (due to loss of plasmids). […] Synthesis of the enzyme was checked by determining enzymatic activity in "standard" conditions, by means of a spectrophotometric test (Martin et al., 1991; J. Gen. Microbiol. 132: 621-628). In this way it was established that the enzyme synthesized constitutively in the strains of E. coli derived from K-12 (strains incapable of metabolizing 4-HPA because they lack all the genes of the degradative route), unlike what occurs in K. pneumoniae M5a1 or E. coli W, where synthesis of the enzyme is inducible by 3-HPA and/or 4-HPA. The E. coli K-12 (E. coli CC118) strains, transformed by the recombinant plasmid, were called E. coli P260. […]
The E. coli P260 cultures produced a blackish brown pigmentation in LB or BHI as a consequence of the expression of the cloned genes. […] To investigate this hypothesis, several aromatic compounds were analyzed, different from 3-HPA and 4-HPA, as possible substrates of the enzyme (Table 2).

4-HPA hidroxylase = assay: 4-HPA hydroxylase activity of strains, spectrophotometric test in standard conditions; format: biochemical, K. pneumoniae
Excerpt: as §1

E. coli W-P260 strain = assay: Biodegradation (mineralization) of the aromatic compound by a growing culture, 14C-CO2 trapping and HPLC; format: cell-based; conditions: minimum PJC medium with glycerol and 4-HPA 2.5 mM, 30°C, 200 rpm
Experimental: In a test experiment, the following procedure was carried out: the E. coli W-P260 strain (obtained by transformation of the E. coli W-21 strain, mutant in hpa genes) was grown in a minimum PJC medium supplemented with glycerol and 4-HPA 2.5 mM (10% of which was marked with ^14C in the aromatic ring). Incubation was carried out at 30°C and with stirring (200 rpm). In order to quantify the biotransformation of the aromatic ring, the CO2 formed during the process was collected on NaOH 1N located in the lid of the matrass so that it would act as a trapping agent. Samples were taken at different times (Figure 3) so as to evaluate the formation of biomass (DO 680), release of CO2 (cpm) and the disappearance of 4 HPA (measurement of concentration by HPLC). In Figure 3 it may be observed how the mineralization capacity of the E. coli W-P260 strain achieves mineralization of the aromatic compound in 12 hours.

T1 sequence (Q48440 whole entry): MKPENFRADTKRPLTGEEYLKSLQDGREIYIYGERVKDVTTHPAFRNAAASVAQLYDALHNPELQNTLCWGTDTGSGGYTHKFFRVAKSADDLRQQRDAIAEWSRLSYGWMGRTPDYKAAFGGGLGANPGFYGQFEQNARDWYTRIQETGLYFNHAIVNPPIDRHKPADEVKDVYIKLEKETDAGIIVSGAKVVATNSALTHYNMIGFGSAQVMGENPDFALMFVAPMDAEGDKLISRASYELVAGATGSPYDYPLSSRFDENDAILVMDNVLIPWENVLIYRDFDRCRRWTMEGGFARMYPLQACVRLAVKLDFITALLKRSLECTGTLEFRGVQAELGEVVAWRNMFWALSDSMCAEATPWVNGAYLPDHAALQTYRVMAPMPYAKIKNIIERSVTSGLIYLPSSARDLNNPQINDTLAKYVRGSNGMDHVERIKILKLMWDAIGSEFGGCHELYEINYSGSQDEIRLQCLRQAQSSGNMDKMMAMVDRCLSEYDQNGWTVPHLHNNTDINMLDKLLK

Compound	% ACTIVITY [1]	also measured
N[C@@H](Cc1ccc(O)c(O)c1)C(=O)O (racemic) [L-Dopa, DL-Dihydroxyphenylalanin]	10%	
O=C(O)Cc1ccccc1O [2-HPA, 2-Hydroxyphenylacetate]	< 5%	
O=C(O)c1ccc(O)c(O)c1 [3,4-DHBA, 3,4-Dihydroxybenzoate]	30%	
O=C(O)Cc1ccc(O)c(O)c1 [3,4-DHPA, 3,4-dihydroxyphenylacetate]	50%	
O=C(O)Cc1cccc(O)c1 [3-HPA]	100%	4-HPA hidroxylase (4-HPA hidroxylase; strain E. coli CC118, substrate growth Gly/4-HPA): <1; 4-HPA hidroxylase (4-HPA hidroxylase; strain E. coli P260, substrate growth Gly/4-HPA/Ap): 50±6; 4-HPA hidroxylase (4-HPA hidroxylase; strain E. coli P260, substrate growth LB/Ap): 57±9; 4-HPA hidroxylase (4-HPA hidroxylase; strain E. coli W-21 (plasmid), substrate growth Gly/4-HPA/Ap): 28±5; 4-HPA hidroxylase (4-HPA hidroxylase; strain E. coli W-21 (plasmid), substrate growth LB/Ap): <5; 4-HPA hidroxylase (4-HPA hidroxylase; strain E. coli W-21, substrate growth Gly/4-HPA): <1; 4-HPA hidroxylase (4-HPA hidroxylase; strain K. pneumoniae M5a1, substrate growth 4-HPA): 26±9; 4-HPA hidroxylase (4-HPA hidroxylase; strain K. pneumoniae M5a1, substrate growth LB): <1
O=C(O)c1ccc(O)cc1 [4-HBA, 4-Hydroxybenzoate]	15%	
O=C(O)Cc1ccc(O)cc1 [4-HPA, 4-hydroxyphenylacetate]	100%	mineralization of the aromatic compound (E. coli W-P260 strain): 12 h
Oc1ccccc1O [Catecol]	30%	
N[C@@H](Cc1ccc(O)cc1)C(=O)O [L-Tyr, L-Tyrosine]	8%	
O=C(O)Cc1ccccc1 [PA, Phenylacetic acid]	< 5%	
